Common to all, as to experiment: NCI tumour cell line growth inhibition, 48 h
The subject of assay [1] is MCF7 breast.
Assay [2] deals with NCI-H522 lung.
For assay [3], the system named is SNB-19 CNS.
Assay [4] has as its system 786-0 renal.
For assay [5], the system named is IGROV1 ovarian.
In assay [6] the test system is A498 renal.
In assay [7] the test system is RPMI-8226 leukemia.
Assay [8] relates to HCT-116 colon.
In assay [9] the test system is MDA-MB-231 breast.
Assay [10] relates to SK-MEL-28 melanoma.

“And” between values parts separate entries of the source, which are not always exact repeats. Equal values may be shown once.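 Growth conditions: 96-well plates. Treatment: test compound, 48 hours, 5 concentrations. Analysis: linear interpolation between bracketing concentrations; unreached endpoints set to highest concentration. Abbreviation: GI50, concentration required for 50% inhibition of growth. At the TGI there is no net growth.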

As for `COc1ccc(OC)c(-c2nc3sc(C)cn3c2/C=C2\C(=O)N(C)c3ccccc32)c1`, the GI50 in [1] is 12.7 µM; in [2], 22 µM; in assay [3], 26.4 µM; in assay [4], 27.6 µM; in [5], 22 µM; in assay [6], 29.3 µM. Further, the GI50 in assay [7] was 13.1 µM; in assay [8], 18.6 µM; in assay [9], 15.3 µM; in assay [10], 19.8 µM. The TGI came out at 41.8 µM in assay [1]; 59.4 µM in [2]; 94.7 µM in [3]; 74.6 µM in assay [4]; 66.5 µM in [5]; 70.6 µM in assay [6]. Further, the TGI in [7] was determined as 40.2 µM; in [8] it was 37.1 µM; in [9] it was 66.3 µM; in [10], 43.6 µM.
In the case of `CN1CCC(n2cnc(-c3ccc(F)cc3)c2-c2ccnc(Nc3ccccc3)n2)CC1`, the GI50 in assay [1] is 1.83 µM; in [2] it was 5.73 µM; in assay [3], 16.1 µM; in assay [4] it was 8.4 µM; in assay [5], 3.04 µM; in assay [6] it was 7.77 µM. The GI50 was above 20.8 µM in assay [7], 7.27 µM in assay [8], 13.6 µM in assay [9] and 5.19 µM in assay [10]. The TGI was above 25 µM in [1]; above 15.7 µM in assay [2]; above 25 µM in assay [3]; above 25 µM in assay [4]; above 13.1 µM in assay [5]; above 25 µM in assay [6]. The TGI is above 25 µM in assay [7], above 25 µM in assay [8], above 25 µM in [9] and 11 µM in assay [10].
Consider `CCN1C(=O)N[C@H]2[C@@H]3NC(=O)c4ccc(Cl)n4[C@@H]3C[C@]21O`, for which the GI50 in assay [1] was 0.242 µM; in assay [2] it was 0.288 µM; in assay [3] it was 0.31 µM; in assay [4], 0.902 µM; in assay [5] it was 0.471 µM; in assay [6], 1.82 µM. In addition, the GI50 is 0.363 µM in assay [7], 0.397 µM in assay [8], 0.822 µM in assay [9] and 0.311 µM in assay [10]. Besides, the TGI was determined as 1.5 µM in assay [1]; 1.76 µM in assay [2]; 9.25 µM in [3]; 9.06 µM in [4]; 6.46 µM in assay [5]; 6.16 µM in [6]. Moreover, the TGI worked out at 2.08 µM in assay [7], 8.32 µM in [8], 7.25 µM in assay [9] and 3.03 µM in assay [10].
As for `CSc1ccc(NC(=O)CCl)cc1`, the TGI in [1] was above 10 µM; in assay [2] it was 6.82 µM; in [3] it was above 10 µM; in [4], above 10 µM; in assay [5] it was above 10 µM; in assay [7], above 10 µM. Besides, the TGI in assay [8], in assay [9] and in assay [10] was above 10 µM throughout.
For the compound `O=CCC(O)C(O)C(O)CO` (stereo unspecified), the GI50 in assay [1], in assay [2], in assay [3], in assay [4], in assay [5] and in [7] was above 100 µM in each case. In addition, the GI50 in assay [8], in assay [9] and in assay [10] was above 100 µM each time. Moreover, the TGI in [1], in [2], in assay [3], in assay [4], in [5] and in assay [7] was above 100 µM each time. In addition, the TGI in assay [8], in assay [9] and in [10] was above 100 µM throughout.
Turning to `COc1ccc(-c2cncn2-c2ccc(-c3nc4cc(OC)c(OC)c(OC)c4s3)cc2)cc1N`, the GI50 was 4.07 µM in assay [1]; 3.37 µM in assay [2]; above 100 µM in assay [3]; 5.73 µM in assay [4]; 4.9 µM in assay [5]; 4.83 µM in [6]. In addition, the values for the GI50 in assay [8], in [9] and in assay [10] were 3.78 µM, above 100 µM and 13.7 µM, respectively. For the same compound, the TGI in assay [1] is above 100 µM; in assay [2] it was 17.5 µM; in assay [3], above 100 µM; in assay [4] it was above 100 µM; in [5] it was above 100 µM; in [6], above 100 µM. For the same compound, the TGI in assay [8], in assay [9] and in [10] was above 100 µM in each case.
Consider `CC[C@H](C)C(=O)O[C@H]1C[C@@H](C)C=C2C=C[C@H](C)[C@H](CC[C@@H]3C[C@@H](O)CC(=O)O3)[C@H]21`, for which the GI50 is 32.1 µM and 14.9 µM in [1]; 1.98 µM and 1.66 µM in [2]; 12.9 µM and 6.14 µM in assay [4]; 3.22 µM and 5.31 µM in [5]; 0.283 µM and 0.162 µM in assay [6]; 8.88 µM and 8.95 µM in [7]. For the same compound, the GI50 in assay [8] was 3.77 µM and 2.05 µM; in assay [9], 0.495 µM and 0.31 µM; in [10] it was 14.4 µM and 10.4 µM. The TGI was above 100 µM in [1]; 8.53 µM and 22.3 µM in assay [2]; > 100 µM and 20.8 µM and > 30 µM in [4]; 23.2 µM and 29 µM and > 30 µM in assay [5]; 2.2 µM and 1.1 µM and 2.82 µM in [6]; > 100 µM and 53.7 µM and > 30 µM in assay [7]. Moreover, the TGI in assay [8] was 24.5 µM and 16.2 µM; in [9] it was 3.5 µM and 1.51 µM; in [10], > 100 µM and 27.1 µM and > 30 µM.
On to `O=C1c2ccccc2-c2c1c1ccc([N+](=O)[O-])cc1c(=O)n2CCN1CCOCC1`, for which the GI50 is 43 µM in assay [1]; above 100 µM in [2]; 79.2 µM in assay [3]; above 100 µM in [4]; above 100 µM in [5]; 35.7 µM in assay [7]. Moreover, the GI50 in assay [8], in assay [9] and in assay [10] was above 100 µM in each case. In addition, the TGI in assay [1], in assay [2], in assay [3], in assay [4], in assay [5] and in [7] was above 100 µM each time. The TGI in [8], in assay [9] and in assay [10] was above 100 µM each time.

For the origin of these results see PubChem BioAssay (NCI).
